From patent US6579882B2, “Cell adhesion-inhibiting antiinflammatory compounds” (Abbott Laboratories, priority 1998, dated 2003)
One block for each compound: values may come before it.

Columns and labels:
E-Selectin = assay: CAM ELISA: E-selectin expression on TNF-stimulated HUVECs; type: cell-based; settings: 1 μM compound, primary human umbilical vein endothelial cells, compound 24 hours, then TNF 5 ng/mL 6 hours; for inhibition at 1 µM: Homo sapiens, Endothelial cell
Method: (§1) Pooled primary human umbilical vein endothelial cells (HtVEC's) (Clonetics) between passages 3 and 7 were plated in 96-well plates (Costar), 100 μL/well, 5×10^4 cells/mL in Clonetics EBM/2% FBS/EGF/Bovine brain extract/gentamicin in the absence of hydrocortisone. The following day, compounds of the invention were added in 10 μL/well medium, and the plates were incubated at 37° C. 24 hours after compound addition, TNF (Gibco/BRL) in 10 μL/well medium was added to a final concentration of 5 ng/mL, and the cells were incubated an additional 6 hours at 37° C. Then media was removed, and the plates were washed once with D-PBS (Gibco/BRL) and treated with primary antibodies (Becton Dickinson, City), 100 μL/well in D-PBS/2% BSA (Sigma)/0.01% azide. Primary antibodies at an initial concentration of 1 mg/mL were used at the following dilutions: anti-ELAM-1, 1:2000, anti-ICAM-1, 1:2000 and anti-VACM-1, 1:3000. Plates were stored overnight at 4° C., washed 3 times with D-PBS, and treated with secondary antibody (Jackson Labs), 100 μL/well 1:8000 dilution HRP-conjugated donkey anti-mouse IgG(H+L) in D-PBS/2%BSA. Plates were incubated a minimum of 1 hour at room temperature, washed 3 times with D-PBS and treated with 100 μL of orhto-phenylene diamine-2 HCl reagent per well. Plates were developed approximately 15 minutes and neutralized with 100 μL/well 1N sulfuric acid. Absorbance was read at 490 nm.

ICAM-1 = assay: CAM ELISA: ICAM-1 expression on TNF-stimulated HUVECs; type: cell-based; settings: 1 μM compound, primary human umbilical vein endothelial cells, compound 24 hours, then TNF 5 ng/mL 6 hours; for inhibition at 1 µM: Homo sapiens, Endothelial cell
Method: as §1

VCAM-1 = assay: CAM ELISA: VCAM-1 expression on TNF-stimulated HUVECs; type: cell-based; settings: 1 μM compound, primary human umbilical vein endothelial cells, compound 24 hours, then TNF 5 ng/mL 6 hours; for inhibition at 1 µM: Homo sapiens, Endothelial cell
Method: as §1

Compound: Cc1nnc(-c2cc3c(Oc4ccc(C(F)(F)F)cc4)cncc3s2)o1 [Example 290, 2-(5-Methyl-1,3,4-oxadiazol-2-yl)-4-[4-(trifluoromethyl)phenoxy]thieno[2,3-c]pyridine]
inhibition at 1 µM (E-Selectin): 42% | inhibition at 1 µM (ICAM-1): 53% | inhibition at 1 µM (VCAM-1): 48%

Compound: Nc1nc(-c2cc3c(Oc4ccc(Cl)cc4)cncc3s2)no1 [Example 289, 3-[4-(4-Chlorophenoxy)thieno[2,3-c]pyridin-2-yl]-1,2,4-oxadiazol-5-amine]
inhibition at 1 µM (E-Selectin): 64% | inhibition at 1 µM (ICAM-1): 62% | inhibition at 1 µM (VCAM-1): 52%

Compound: NC(=O)c1cc2c(Oc3cccc(C(F)(F)F)c3)cncc2s1 [Example 184, 4-[3-(Trifluoromethyl)phenoxy]thieno[2,3-c]pyridine-2-carboxamide]
inhibition at 1 µM (E-Selectin): 52% | inhibition at 1 µM (ICAM-1): 56% | inhibition at 1 µM (VCAM-1): 30%

Compound: 4-(4-Chlorobenzoyl)-N-methylthieno[2,3-c]pyridine-2-carboxamide [Example 237I]
CAM ELISA % Inhibition at 1 μM E-Selectin (E-Selectin): 71% | CAM ELISA % Inhibition at 1 μM ICAM-1 (ICAM-1): 77% | CAM ELISA % Inhibition at 1 μM VCAM-1 (VCAM-1): 54%

Compound: Cc1ccc(Sc2cncc3sc(C(N)=O)cc23)cc1 [Example 19, 4-[(4-methylphenyl)thio]thieno[2,3-c]pyridine-2-carboxamide]
inhibition at 1 µM (E-Selectin): 79% | inhibition at 1 µM (ICAM-1): 67% | inhibition at 1 µM (VCAM-1): 41%

Compound: O=C(Nc1cc2c(Oc3ccc(Cl)cc3)cncc2s1)OC1CCOC1 (stereo not shown) [Example 89, N-(4-(4-chlorophenoxy)thieno[2,3-c]pyridin-2-yl)-O-(3-tetrahydrofuranyl)carbamate]
CAM ELISA % Inhibition at 1 μM E-Selectin (E-Selectin): 62% | CAM ELISA % Inhibition at 1 μM ICAM-1 (ICAM-1): 64% | CAM ELISA % Inhibition at 1 μM VCAM-1 (VCAM-1): 50%

Compound: CCOCCOCCOCC1(c2ccc(Oc3cncc4sc(C(=O)NC)cc34)cc2)CC1 [Example 226]
CAM ELISA % Inhibition at 1 μM E-Selectin (E-Selectin): 77% | CAM ELISA % Inhibition at 1 μM ICAM-1 (ICAM-1): 74% | CAM ELISA % Inhibition at 1 μM VCAM-1 (VCAM-1): 56%

Compound: NC(=O)c1cc2c(-c3ccc(C(F)(F)F)cc3)cncc2s1 [Example 95, 4-[4-(trifluoromethyl)phenyl]thieno[2,3-c]pyridine-2-carboxamide]
inhibition at 1 µM (E-Selectin): 85% | inhibition at 1 µM (ICAM-1): 71% | inhibition at 1 µM (VCAM-1): 61%

Compound: CNC(=O)c1sc2cncc(Oc3ccc(Cl)cc3)c2c1C [Example 303, 4-(4-Chlorophenoxy)-N, 3-dimethylthieno[2,3-c]pyridine-2-carboxamide]
inhibition at 1 µM (E-Selectin): 65% | inhibition at 1 µM (ICAM-1): 66% | inhibition at 1 µM (VCAM-1): 33%

Compound: CNC(=O)c1cc2c(Oc3ccc(-n4cncn4)cc3)cncc2s1 [Example 219, N-Methyl-4-[4-(1H-1,2,4-triazol-1-yl)phenoxy]thieno[2,3-c]pyridine-2-carboxamide]
inhibition at 1 µM (E-Selectin): 62% | inhibition at 1 µM (ICAM-1): 68% | inhibition at 1 µM (VCAM-1): 50%

Compound: O=C(NCCO)c1cc2c(Oc3ccc(C(F)(F)F)cc3)cnc(Cl)c2s1 [Example 320]
CAM ELISA % Inhibition at 1 μM E-Selectin (E-Selectin): 64% | CAM ELISA % Inhibition at 1 μM ICAM-1 (ICAM-1): 67% | CAM ELISA % Inhibition at 1 μM VCAM-1 (VCAM-1): 55%

Compound: Clc1ccc(Oc2cncc3sc(-c4ncon4)cc23)cc1 [Example 287, 4-(4-Chlorophenoxy)-2-(1,2,4-oxadiazol-3-yl)thieno[2,3-c]pyridine]
inhibition at 1 µM (E-Selectin): 49% | inhibition at 1 µM (ICAM-1): 49% | inhibition at 1 µM (VCAM-1): 27%

Compound: CCOCCOCCOCC(F)(F)c1ccc(Oc2cncc3sc(C(=O)NC)cc23)cc1 [Example 230, 4-(4-[2-[2-(2-Ethoxyethoxy)ethoxy]-1,1-difluoroethyl]phenoxy)-N-methylthieno[2,3-c]pyridine-2-carboxamide]
inhibition at 1 µM (E-Selectin): 56% | inhibition at 1 µM (ICAM-1): 53% | inhibition at 1 µM (VCAM-1): 45%

Compound: CCc1cc2c(Sc3nnc(C)s3)ncnc2s1 [Example 6, 6-ethyl-4-[(5-methyl-1,3,4-thiadiazol-2-yl)thio]thieno[2,3-d]pyrimidine]
melting point: 132 to 135 °C

Compound: CCc1cc2c(Sc3ccccn3)ncnc2s1 [Example 3, 6-ethyl-4-(2-pyridinylthio)thieno[2,3-d]pyrimidine]
melting point: 76.5 to 79 °C

Compound: Cc1ccc(Sc2cncc3sc(C(N)=S)cc23)cc1 [Example 41, 4-[(4-methylphenyl)thio]thieno[2,3-c]pyridine-2-carbothioamide]
melting point: 181 to 183 °C

Compound: Cc1ccc(Sc2cncc3sc(C=NOCc4ccccc4)cc23)cc1 [Example 27, 4-[(4-methylphenyl)thio]thieno[2,3-c]pyridine-2-carboxaldehyde, O-(phenylmethyl)oxime]
melting point: 127 to 133 °C

Compound: CCc1cc2c(Sc3ccc(C)cc3)ncnc2s1 [Example 2, 6-ethyl-4-[(4-methylphenyl)thio]thieno[2,3-d]pyrimidine]
melting point: 56 to 58 °C

Compound: O=C(NCCCl)c1cc2c(Oc3ccc(Cl)cc3)cncc2s1
melting point: 60 to 62 °C (dec.)

Compound: Cc1ccc(Sc2cncc3sc(C(N)=O)cc23)c(C)c1 [Example 52, 4-[(2,4-dimethylphenyl)thio]thieno[2,3-c]pyridine-2-carboxamide]
melting point: 193 to 195 °C

Compound: COc1ccc(Sc2cncc3sc(C(N)=O)cc23)cc1 [Example 56, 4-[(4-methoxyphenyl)thio]thieno[2,3-c]pyridine-2-carboxamide]
melting point: 219 to 221 °C

Compound: Cc1ccc(Sc2cncc3sccc23)cc1 [Example 42, 4-[(4-methylphenyl)thio]thieno[2,3-c]pyridine]
melting point: 94 to 95 °C

Compound: CON=Cc1cc2c(Sc3ccc(C)cc3)cncc2s1 [Example 26, 4-[(4-methylphenyl)thio]thieno[2,3-c]pyridine-2-carboxaldehyde, O-methyloxime]
melting point: 95 to 98 °C

The remaining lines, values ahead:

melting point: 202 to 204 °C
Compound: NC(=O)NCc1cc2c(Oc3ccc(Cl)cc3)cncc2s1 [Example 258, N-1[4-(4-Chlorophenoxy)thieno[2,3-c]pyridin-2-yl]methyl urea]

melting point: 170 to 171 °C
Compound: CNC(=O)c1cc2c(Oc3ccc(F)c(F)c3F)cncc2s1 [Example 181, N-Methyl-4-(2,3,4-trifluorophenoxy)thieno[2,3-c]pyridine-2-carboxamide]

melting point: 178 to 182 °C
Compound: Nc1ccc(-c2cc3c(Oc4ccc(Cl)cc4)cncc3s2)cc1 [Example 272, 4-[4-(4-Chlorophenoxy)thieno[2,3-c]pyridin-2-yl]aniline]

melting point: 111 to 114 °C
Compound: NCCNC(=O)c1cc2c(Oc3ccc(Cl)cc3)cncc2s1 [Example 154, N-(2-Aminoethyl)-4-(4-chlorophenoxy)thieno[2,3-c]pyridine-2-carboxamide]

melting point: 177 to 178 °C
Compound: Cc1c(C(N)=O)sc2cncc(Oc3ccc(Br)cc3)c12 [Example 304, 4-(4-Bromophenoxy)-3-methylthieno[2,3-c]pyridine-2-carboxamide]

melting point: 80 to 81 °C
Compound: C=Cc1ccc(Oc2cncc3sc(C(=O)N(C)C)cc23)cc1 [Example 185, N,N-Dimethyl-4-(4-vinylphenoxy)thieno[2,3-c]pyridine-2-carboxamide]

melting point: 213 to 215 °C
Compound: Oc1ccc(-c2cc3c(Oc4ccc(Cl)cc4)cncc3s2)cc1 [Example 270, 4-[4-(4-Chlorophenoxy)thieno[2,3-c]pyridin-2-yl]phenol]

melting point: 158 to 160 °C (dec.)
Compound: Clc1ccc(Oc2cncc3sc(C4=NCCO4)cc23)cc1 [Example 296, 4-(4-Chlorophenoxy)-2-(4,5-dihydro-1,3-oxazol-2-yl)thieno[2,3-c]pyridine]

melting point: 180 to 182 °C
Compound: NC(=O)c1cc2c(Oc3ccc(COC(=O)c4ccco4)cc3)cncc2s1 [Example 200, 4-[[2-(Aminocarbonyl)thieno[2,3-c]pyridin-4-yl]oxy}benzyl 2-furoate]

melting point: 154 to 155 °C
Compound: Clc1ccc(Oc2cncc3sc(C4=NCCN4)cc23)cc1 [Example 298, 4-(4-Chlorophenoxy)-2-(4,5-dihydro-1H-imidazol-2-yl)thieno[2,3-c]pyridine]

melting point: 140 to 142 °C
Compound: N#Cc1cc2c(Oc3ccc(Cl)cc3)cncc2s1 [Example 248, 4-(4-Chlorophenoxy)thieno[2,3-c]pyridine-2-carbonitrile]

melting point: 93 to 95 °C
Compound: CN(C)C(=O)c1cc2c(Oc3ccc(Br)cc3)cncc2s1 [Example 172, 4-(4-Bromophenoxy)-N,N-dimethylthieno[2,3-c]pyridine-2-carboxamide]

melting point: 215 to 218 °C
Compound: NC(=O)c1csc(-c2cc3c(Oc4ccc(Cl)cc4)cncc3s2)n1 [Example 293, 2-[4-(4-Chlorophenoxy)thieno[2,3-c]pyridin-2-yl]-1,3-thiazole-4-carboxamide]

melting point: 176 to 178 °C
Compound: NC(=O)/C=C/c1cc2c(Oc3ccc(Cl)cc3)cncc2s1 [Example 92, (E)-3-[4-(4-chlorophenoxy)thieno[2,3-c]pyridin-2-yl]-2-propenamide]

melting point: 222 to 225 °C
Compound: NC(=O)CNC(=O)c1cc2c(Oc3ccc(Cl)cc3)cncc2s1 [Example 160, N-(2-Amino-2-oxoethyl)-4-(4-chlorophenoxy)thieno[2,3-c]pyridine-2-carboxamide]
